Structures are written as SMILES. “And” between values parts separate entries of the source, which are not always exact repeats. Identical values can stand only once. Like-named read-outs stand apart in the source and are kept apart here.

The values that follow come from patent US6989397B1, “Iron chelators and uses thereof” (University of Queensland, priority 1999, dated 2006).

In experiment [1] the test system is SK-N-MC neuroepithelioma cells. Briefly: cellular proliferation, MTT assay. Format: cell-based, human. Conditions: 90 h incubation, chelators 0.39–50 μM, read-out: IC50, inhibition of growth of SK-N-MC cells. As to the method:
FIG. 4. The effect of chelator concentration on the proliferation of SK-N-MC neuroepithelioma cells. Cells were incubated in the presence and absence of the chelators (0–50 μM) for 90 h at 37° C. After this incubation period, cellular density was measured via the MTT assay. Each data point represents the mean of four replicates in a typical experiment of two experiments performed.
The effects of the chelators on the proliferation of SK-N-MC neuroepithelioma cells were examined using the MTT (3-(4,5-dimethylthiazol-2-yl)-2,5-diphenyltetrazolium) assay by essentially the same method as described previously (Richardson et al., 1995). Cellular proliferation was examined by seeding cells in 96-well microtitre plates at 15,000 cells/well in 0.1 mL of complete medium containing human diferric Tf (1.25 μM). […] The cells were allowed to grow overnight and the chelators were then added in 0.1 mL of complete medium containing differic transferrin (1.25 μM). The final concentrations of the chelators were 0.39–50 μM. Control samples contained complete medium and diferric Tf (1.25 μM). Cells were incubated with the chelators for 90 hrs at 37° C. in a humidified atmosphere containing 95% air and 5% CO2. After this incubation, 0.01 mL of MTT was added to each well and the plates incubated for 2 hrs at 37° C. The cells were solubilized by adding 0.1 mL of 10% SDS-50% isobutanol in 0.01 M HCl and the plates were read at 570 nm on a scanning multiwell spectrophotometer (Titertek Multiscan; Beckman Instruments Inc., California). As shown previously for the SK-N-MC cell line, MTT colour formation was directly proportional to the number of viable cells (Richardson et al., 1995).

The test system of another experiment is WAF1 mRNA. Briefly: Northern blot analysis of mRNA levels. Format: cell-based, human. Conditions: SK-N-MC cells, 20 h; chelators 25 μM, DFO 100 μM. As to the method: (§1) FIG. 6. The effect of the chelators on mRNA levels of GADD45, WAF1 and β-actin in SK-N-MC neuroepithelioma cells. Total RNA was extracted from cells after a 20 h incubation with medium alone (control) or medium containing ferric ammonium citrate (100 μg/mL), DFO (100 μM), or the other chelators (25 μM). The isolated RNA was then electrophoresed on a 1.2% agarose-formaldehyde gel, transferred to a hybridisation membrane, and probed under high stringency conditions.
(§2) Northern blot analysis was performed by isolating total RNA using the Total RNA isolation Reagent from Advanced Biotechnologies Ltd (Surrey, United Kingdom). The RNA (15 μg) was heat denatured at 90° C. for 2 mins in RNA-loading buffer and then loaded onto a 1.2% agarose-formaldehyde gel. After electrophoresis, RNA was transferred to a nylon membrane (GeneScreen, New England Nuclear, Boston, USA) in 10×SSC using the capillary blotting method. The RNA was then cross-linked to the membrane using a UV-crosslinker (UV Stratalinker 1800, Stragene Ltd., USA).
(§3) The membranes were hybridized with probes specific for human WAF1, GADD-45 and β-actin. The WAF1 probe consisted of a 1 kb fragment from pSXV(ATTC: Cat. No. 79928). The GADD45 probe consisted of a 760 bp fragment from human GADD45 cDNA cloned into pHu145B2 (kindly supplied by Dr. Albert Fornace, National Cancer Institute, NIH, Maryland). The β-actin probe consisted of a 1.4 kb fragment from human β-actin cDNA cloned into pBluescript SK-(ATTC: at. No 37997).
(§4) Hybridization of probes to the membranes and their subsequent washing were performed as described by Mahmoudi and Lin, 1989, Biotechniques 7, 331–2 using a Hybaid Shake and Stack Hybridization oven (Hybaid Ltd., Middlesex, UK). The membranes were then exposed to Kodak XAR Films at −70° C. with an intensifying screen. The probes were stripped from the nylon membrane by boiling in a solution containing 10 mM Tris-HCl (pH 7.0). 1 mM EDTA (pH 8.0) and 1% SDS for 15–30 mins as described by the membrane manufacturer. Densitometric data were collected with a Laser Densitometer and analyzed by Kodak Biomax Software (Kodak Ltd, USA).

The next experiment relates to GADD45 mRNA. Briefly: Northern blot analysis of mRNA levels. The format is cell-based, human. Conditions: SK-N-MC cells, 20 h; chelators 25 μM, DFO 100 μM. As to the method: as §1, §2, §3, §4
Experiment [2] deals with SK-N-MC neuroepithelioma cells. Briefly: 59Fe release from prelabelled cells (iron efflux). The conditions noted are these: DFO 100 μM; for % Cellular Iron Released: labelled 3 h with 59Fe-transferrin 0.75 μM, reincubated 3 h at 37° C., chelators 50 μM, Mean±SD; for release of cellular 59Fe (FIG. 2A): 3 hr labelling, 3 hr reincubation, ligands 50 μM, FIG. 2A screening experiment. Format: cell-based, human. On the procedure: (§5) The effect of chelators on ^59Fe uptake from ^59Fe-Tf and ^59Fe release from prelabelled cells was studied using standard procedures reported previously (Richardson et al., 1994, J. Lab Clin. Med. 124 660–71). The amount of ^59Fe internalized by the cells was measured by incubation with the general protease pronase (1 mg/ml) for 30 min at 4° C. to remove membrane-bound ^59Fe and Tf (Richardson et al., 1990; Baker et al., 1998, Biochim. Biophys. Acta 1380 21–30).
The efflux of ^59Fe from SK-N-MC cells was examined after a 3 hr labelling period with ^59Fe-Tf (0.75 μM) followed by a 3 hr reincubation in the presence and absence of DFO (100 μM) or the remainder of the ligands at 50 μM (FIG. 2A).
(§6) Table 1. The effect of DFO, 311, PCTH, PCBH, or PCBHH on ^59Fe release from BE-2 neuroblastoma cells, SK-N-MC neuroepithelioma cells, and SK-Mel-28 melanoma cells. Cells were labeled for 3 h at 37° C. with ^59Fe-transferrin (0.75 μM), washed, and then reincubated with the chelators for 3 h at 37° C. […] Results are Mean±SD of three determinations in a typical experiment.

Another experiment concerns BE-2 neuroblastoma cells. Briefly: 59Fe release from prelabelled cells (iron efflux). The format is cell-based. The conditions noted are these: labelled 3 h with 59Fe-transferrin 0.75 μM, reincubated 3 h at 37° C., chelators 50 μM, DFO 100 μM, Mean±SD. As to the method:
as §5, §6

A further experiment relates to SK-Mel-28 melanoma cells. Briefly: internalized 59Fe uptake from 59Fe-transferrin. Format: cell-based, human. Conditions: 59Fe-transferrin 0.75 μM, 3 h at 37° C., chelators 50 μM, DFO 100 μM, mean±SD. On the procedure:
as §5
Table 2. The effect of DFO, 311, PCTH, PCBH, or PCBHH on internalized ^59Fe uptake from ^59Fe-transferrin by BE-2 neuroblastoma cells, SK-N-MC neuroepithelioma cells, and SK-Mel-28 melanoma cells. Cells were incubated with the chelators and ^59Fe-transferrin (0.75 μM) for 3 h at 37° C., washed, and incubated for 30 min at 4° C. with pronase (1 mg/ml) to separate the internalized from the membrane-bound ^59Fe. All chelators were screened at a concentration of 50 μM except for DFO which was examined at 100 μM. Results are mean±SD (three determinations) from a typical experiment.

As to `O=C(NN=Cc1c(O)ccc2ccccc12)c1ccncc1` [Chelator 311, 2-hydroxy-1-naphthylaldehyde isonicotinoyl hydrazone, reference compound], the IC50 in experiment [1] worked out at 2 µM. In the experiment with WAF1 mRNA, the “level of WAF1 mRNA (FIG. 6)” value is “increase”. In addition, the “level of GADD45 mRNA (FIG. 6)” value in the experiment with GADD45 mRNA is “increase”. For the same compound, the “% Cellular Iron Released” value in experiment [2] worked out at 49 ± 1%; in the experiment on BE-2 neuroblastoma cells, 52 ± 1%. Also, in the experiment with SK-Mel-28 melanoma cells, the “Internalised Iron Uptake (% Control)” value was found to be 9 ± 1 % Control.
For the compound `CC(=O)N(O)CCCCCNC(=O)CCC(=O)N(O)CCCCCNC(=O)CCC(=O)N(O)CCCCCN` [DFO, desferrioxamine, reference compound], the IC50 in experiment [1] (Homo sapiens, SK-N-MC) is 47 µM. Moreover, in experiment [2], the “release of cellular 59Fe (FIG. 2A)” value is recorded as 19% and the “% Cellular Iron Released” value is listed as 18 ± 3%. Also, in the experiment on BE-2 neuroblastoma cells, the “% Cellular Iron Released” value was 44 ± 2%. Moreover, the “Internalised Iron Uptake (% Control)” value in the experiment on SK-Mel-28 melanoma cells is 98 % Control and 98 ± 7 % Control.
With `O=C(NN=Cc1ccco1)c1ccncc1` [FIH, 2furoylcarboxaldehyde isonicotinoyl hydrazone], in experiment [2], the “release of cellular 59Fe (FIG. 2A)” value is “did not appreciably increase”.
As to `O=C(NN=Cc1ccccn1)c1ccccc1` [PCBH, 2-pyridylcarboxaldehyde benzoyl hydrazone], the IC50 in experiment [1] came to 50 µM. For the same compound, in the experiment on WAF1 mRNA, the “level of WAF1 mRNA (FIG. 6)” value is “did not have any effect”. The “level of GADD45 mRNA (FIG. 6)” value in the experiment on GADD45 mRNA is recorded as “did not have any effect”. Further, the “% Cellular Iron Released” value in experiment [2] was found to be 47 ± 3%; with BE-2 neuroblastoma cells it was 44 ± 1%. In the experiment with SK-Mel-28 melanoma cells, the “Internalised Iron Uptake (% Control)” value was 36 ± 6 % Control.
In the case of `O=C(NN=Cc1ccccn1)c1cccs1` [PCTH, 2-pyridylcarboxaldehyde 2-thiophenecarboxyl hydrazone], the “level of WAF1 mRNA (FIG. 6)” value in the experiment on WAF1 mRNA is “did not have any effect”. For the same compound, the “level of GADD45 mRNA (FIG. 6)” value with GADD45 mRNA was “did not have any effect”. Moreover, the “% Cellular Iron Released” value is reported as 51 ± 5% in experiment [2] and 50 ± 1% in the experiment with BE-2 neuroblastoma cells. Also, in the experiment with SK-Mel-28 melanoma cells, the “Internalised Iron Uptake (% Control)” value worked out at 38 ± 6 % Control.

Broadly, the IC50 is the concentration needed to halve the response being measured.
